Molecules are shown by their SMILES.

Consider 28 molecules from EP4800013A1, “PARG INHIBITOR” (Shanghai Qilu Pharmaceutical Research and Development …, priority 2023, dated 2025).

One test concerns the target T1, PARG (Homo sapiens, UniProt Q86W56).
T1 construct: made in house
Kind of test: Enzymatic inhibitory activity against PARG, HTRF assay. It is filed as biochemical. The settings on record: HTRF; PARylated PARP1 protein as substrate; 60 minutes at room temperature; read-out: IC50 against PARG enzyme. As for the experimental part: In this experiment, the enzymatic inhibitory activity of the compounds of the present disclosure against PARG was determined using an HTRF (homogeneous time-resolved fluorescence) assay.
HTRF assay reagents were purchased from PerkinElmer (Cat. Nos. 61HISTLB and 610SAXLB). The purified protein was prepared in-house.
PARG enzyme reaction buffer: 50 mM Tris (pH 7.4), 0.1 mg/mL BSA, 3 mM EDTA, 0.4 mM EGTA, 1 mM DTT, 50 mM KCl, and 0.01% Tween 20.
• 1) Using an ultra-micro pipette, the compounds of the present disclosure were serially diluted (starting at 10 µM with 3- to 5-fold serial dilutions) and added to a 384-well reaction plate, with each concentration tested in duplicate wells. Control group 1 was added with 10 µM control compound (100% inhibition group). Control group 2 was added with DMSO (0% inhibition group). After compound addition, the 384-well plate was centrifuged at 1000 rpm for 1 minute. • 2) 2.5 µL of PARG protein was added to each well and incubated with the compounds of the present disclosure at room temperature for 15 minutes, followed by centrifugation at 1000 rpm for 1 minute. • 3) 2.5 µL of PARylated PARP1 protein was added to each well and incubated at room temperature for 60 minutes, followed by centrifugation at 1000 rpm for 1 minute. • 4) 5 µL of His-Tb & SA-XL665 HTRF assay reagents were added to each well and incubated at room temperature for 60 minutes, followed by centrifugation at 1000 rpm for 1 minute. • 5) […] were measured using a PHERAstar FSX microplate reader from BMG. • 6) Data analysis was performed using GraphPad Prism 8. The IC50 values of the compounds of the present disclosure were calculated as follows. […] The average value of duplicate wells in control group 2 (0% inhibition group) was set as the relative inhibition rate of 0%. The HTRF signal values were converted into relative inhibition rates. The IC50 values of the compounds were calculated by fitting the data to a four-parameter logistic model. Table 15: Enzymatic inhibitory activity of the compounds of the present disclosure against PARG

A further test relates to KURAMOCHI cells. Kind of test: Inhibition of proliferation of KURAMOCHI cells (CellTiter-Glo, intracellular ATP). Format: cell-based. The settings on record: 168 h, incubated for 7 days, read-out: IC50 against KURAMOCHI cells. The procedure:
In this experiment, the inhibitory effect of the compounds of the present disclosure on the proliferation of the cancer cell line KURAMOCHI was evaluated by measuring intracellular ATP levels using a bioluminescent assay, and the half maximal inhibitory concentration (IC50) was determined.
RPMI 1640 medium (Cat. No. 11875-093), fetal bovine serum (10099-141), and 100× Pen/Strep (15070-063) were purchased from GIBCO. CellTiter-Glo Luminescent Cell Viability Assay reagent (Cat. No. G7573) was purchased from Promega.
• 1) Day 1: KURAMOCHI cells were counted using a cell counter and seeded into a 96-well culture plate at a density of 4000 cells per well in 100 µL medium. The plate was incubated overnight in an incubator (37°C, 5% CO2). • 2) Day 2: Using a D300e digital dispenser (TECAN), 500 nL of serially diluted test compounds of the present disclosure (starting at 10 µM, a total of 9 concentrations, 1:4 dilution) were added to the cells in the culture plate. The final concentration of DMSO was 0.5%. The cell culture plate was incubated for 7 days in a cell culture incubator (37°C, 5% CO2). Control group 1 received only medium and DMSO (100% inhibition group). Control group 2 received only DMSO (0% inhibition group). The final concentration of DMSO in both groups was 0.5%. • 3) Day 9: 100 µL of CellTiter-Glo reagent was added to each well. The plate was shaken at 500 rpm for 2 minutes, centrifuged at 1000 rpm for 1 minute, and then incubated at room temperature in the dark for 10 minutes to stabilize the luminescence signal. • 4) Luminescence signals were measured using an EnVision microplate reader (PerkinElmer). • 5) Data analysis was performed using GraphPad Prism 8. The IC50 values of the compounds of the present disclosure were calculated as follows. The CTG signal values were analyzed. The average inhibition rate of control group 1 (100% inhibition group) was set as the relative inhibition rate of 100%. The average inhibition rate of control group 2 (0% inhibition group) was set as the relative inhibition rate of 0%. The CTG signal values were converted into relative inhibition rates. The inhibition percentage (inhibition%) for each concentration of the compounds of the present disclosure was calculated according to the following formula: Inhibition% = (b−x)/(b−a)*100%; [formula] • a = CTG value (highest concentration), b = CTG value (blank well), x = CTG value (test well). • IC50 was calculated using GraphPad Prism 8. • (1) The concentration and inhibition rate corresponding to each well were recorded. Statistical calculation was performed using Log10 (compound concentration). • (2) The data were input into GraphPad Prism 8 and Analysis was selected. • (3) Nonlinear regression (curve fit) was selected. • (4) Log (inhibitor) vs. response - Variable slope was selected. • (5) The calculation formula was selected, and the calculation was performed according to the following formula: Y = Bottom + (Top - Bottom) / (1 + 10 ^ ((LogIC50 - X) * HillSlope)); X: log of dose or concentration; Y: response; Top and Bottom: maximum and minimum response. • (6) The IC50 values were calculated by fitting the data. Table 16: Inhibitory effect of the compounds of the present disclosure on the proliferation of KURAMOCHI cells

T1 sequence (Q86W56 whole entry): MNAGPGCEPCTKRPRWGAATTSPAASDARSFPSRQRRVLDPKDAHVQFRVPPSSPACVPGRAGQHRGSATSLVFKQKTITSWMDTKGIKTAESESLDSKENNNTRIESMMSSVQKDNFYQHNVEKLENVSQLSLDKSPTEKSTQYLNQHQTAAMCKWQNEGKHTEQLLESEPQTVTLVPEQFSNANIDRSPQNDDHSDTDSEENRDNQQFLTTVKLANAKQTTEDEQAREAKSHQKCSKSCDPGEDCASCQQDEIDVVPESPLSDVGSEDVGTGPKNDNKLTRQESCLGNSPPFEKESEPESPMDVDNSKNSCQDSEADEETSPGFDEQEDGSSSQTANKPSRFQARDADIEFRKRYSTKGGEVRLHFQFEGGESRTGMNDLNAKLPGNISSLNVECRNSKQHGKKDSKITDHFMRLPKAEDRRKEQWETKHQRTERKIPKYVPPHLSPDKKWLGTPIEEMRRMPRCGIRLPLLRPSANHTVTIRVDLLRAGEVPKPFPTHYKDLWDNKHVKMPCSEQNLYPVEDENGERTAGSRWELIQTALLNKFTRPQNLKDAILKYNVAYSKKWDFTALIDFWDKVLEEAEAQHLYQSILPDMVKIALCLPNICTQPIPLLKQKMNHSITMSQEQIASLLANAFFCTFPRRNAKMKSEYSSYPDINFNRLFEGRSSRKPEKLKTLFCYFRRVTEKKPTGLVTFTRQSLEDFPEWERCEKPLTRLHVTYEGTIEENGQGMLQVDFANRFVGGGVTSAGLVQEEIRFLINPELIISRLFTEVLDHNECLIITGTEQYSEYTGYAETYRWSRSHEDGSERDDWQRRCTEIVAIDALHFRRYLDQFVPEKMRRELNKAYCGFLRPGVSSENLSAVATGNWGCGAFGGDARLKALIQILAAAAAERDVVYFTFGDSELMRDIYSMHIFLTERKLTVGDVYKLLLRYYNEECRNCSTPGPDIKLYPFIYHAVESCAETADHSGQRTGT

In the case of `C=CCn1c(=O)n(-c2nnc(C(F)F)s2)c2cc(S(=O)(=O)NC3(C#N)CC3)cc(N3CCN(S(=O)(=O)C4CC4)CC3)c21` [Compound 067R], the IC50 at PARG worked out at 3.4 nM; in the test with KURAMOCHI cells, 6 nM.

As for `C=CCn1c(=O)n(-c2nnc(C(F)F)s2)c2cc(S(=O)(=O)NC3(C#N)CC3)cc(N3CCN(C(=O)C4CC4)CC3)c21` [Compound 067S], the 50% inhibitory concentration (IC50) came to 13.3 nM at PARG and 14 nM with KURAMOCHI cells.

Turning to `C=CCn1c(=O)n(-c2nnc(C(F)F)s2)c2cc(S(=O)(=O)NC3(C#N)CC3)cc(N3CCN(C(=O)C(C)(C)C)CC3)c21` [Compound 067T], the IC50 on PARG was 16 nM; in the test with KURAMOCHI cells it was 11 nM.

On to `C=CCn1c(=O)n(-c2nnc(C(F)F)s2)c2cc(S(=O)(=O)NC3(C#N)CC3)cc(N3CCN(C(=O)C4CCC4)CC3)c21` [Compound 067U], for which the figures for the IC50 on PARG and in the test with KURAMOCHI cells were 20 nM and 21 nM, respectively.

With `C=CCn1c(=O)n(-c2nnc(C(F)F)s2)c2cc(S(=O)(=O)NC3(C#N)CC3)cc(N3CCN(C(=O)C4COC4)CC3)c21` [Compound 067V], the 50% inhibitory concentration (IC50) at PARG came out at 13.4 nM; in the test with KURAMOCHI cells, 83 nM.

For `C=CCn1c(=O)n(-c2nnc(C(F)F)s2)c2cc(S(=O)(=O)NC3(C#N)CC3)cc(N3CCN(C(=O)[C@@H](C)CC)CC3)c21` [Compound 067W2], the IC50 on PARG stood at 13.1 nM; in the test with KURAMOCHI cells, 11 nM.

Consider `C=CCn1c(=O)n(-c2nnc(C(F)F)s2)c2cc(S(=O)(=O)NC3(C#N)CC3)cc(N3CCN(C(=O)[C@H](C)CC)CC3)c21` [Compound 067Wl], for which the IC50 is 19.7 nM on PARG and 23 nM in the test on KURAMOCHI cells.

Turning to `C=CCn1c(=O)n(-c2nnc(C(F)F)s2)c2cc(S(=O)(=O)NC3(C#N)CC3)cc(N3CCN(C(=O)C4CCCC4)CC3)c21` [Compound 067X], the results for the concentration for half-maximal inhibition (IC50) on PARG and in the test on KURAMOCHI cells were 21.1 nM and 23 nM, respectively.

Regarding `C=CCn1c(=O)n(-c2nnc(C(F)F)s2)c2cc(S(=O)(=O)NC3(C#N)CC3)cc(N3CCN(C(=O)C4(C)CC4)CC3)c21` [Compound 067Y], the results for the half-inhibitory concentration (IC50) at PARG and with KURAMOCHI cells were 21.2 nM and 34 nM, respectively.

`C=CCn1c(=O)n(-c2nnc(C(F)F)s2)c2cc(S(=O)(=O)NC3(CF)CC3)cc(N3CCN(C(=O)C(C)C)CC3)c21` [Compound 068A]: the IC50 at PARG came to 3.5 nM; in the test with KURAMOCHI cells, 4 nM.

With `C=CCn1c(=O)n(-c2nnc(C(F)F)s2)c2cc(S(=O)(=O)NC3(C)COC3)cc(N3CCN(C(=O)C(C)C)CC3)c21` [Compound 068B], the figures for the IC50 at PARG and in the test with KURAMOCHI cells were 15.8 nM and 17 nM, respectively.

Consider `C=CCn1c(=O)n(-c2nnc(C(F)(F)F)s2)c2cc(S(=O)(=O)NC3(C#N)CC3)cc(N3CCN(C(=O)C(C)C)CC3)c21` [Compound 070A], for which the IC50 came out at 15.3 nM at PARG and 18 nM in the test with KURAMOCHI cells.

On to `C=CCn1c(=O)n(-c2nnc(C(F)(F)F)s2)c2cc(S(=O)(=O)NC3(C#N)CC3)cc(N3CCN(C(=O)C(C)(C)O)CC3)c21` [Compound 070B], for which the figures for the IC50 at PARG and in the test with KURAMOCHI cells were 20.3 nM and 25 nM, respectively.

Consider `C=CCn1c(=O)n(-c2nnc(C(F)F)s2)c2cc(S(=O)(=O)NC3(C#N)CC3)cc(N3CCN(C(=O)C(C)(C)O)[C@H](C)C3)c21` [Compound 071C2], for which the values for the concentration for half-maximal inhibition (IC50) on PARG and in the test on KURAMOCHI cells were 8.9 nM and 50 nM, respectively.

For `C=CCn1c(=O)n(-c2nnc(C(F)F)s2)c2cc(S(=O)(=O)NC3(C#N)CC3)cc(N3CCN(C(=O)C4CCOC4)CC3)c21` (centres unmarked) [Compound 072B], the IC50 was 15.9 nM on PARG and 53 nM in the test on KURAMOCHI cells.

Consider `C=CCn1c(=O)n(-c2nnc(C(F)F)s2)c2cc(S(=O)(=O)NC3(C#N)CC3)cc(N3CCN(C(=O)C(C)(O)C(F)(F)F)CC3)c21` (centres unmarked) [Compound 073A], for which the figures for the IC50 at PARG and in the test with KURAMOCHI cells were 30.6 nM and 34 nM, respectively.

In the case of `C=CCn1c(=O)n(-c2nnc(C(F)F)s2)c2cc(S(=O)(=O)NC3(C#N)CC3)cc(N3CCN(C(=O)C4(O)CCC4)CC3)c21` [Compound 073B], the 50% inhibitory concentration (IC50) on PARG was 4.5 nM; in the test on KURAMOCHI cells, 22 nM.

For the molecule `C=CCn1c(=O)n(-c2nnc(C(F)F)s2)c2cc(S(=O)(=O)NC3(C#N)CC3)cc(N3CCN([S+]([O-])C(C)(C)C)CC3)c21` (centres unmarked) [Compound 074A-11], the IC50 worked out at 2.8 nM at PARG and 4 nM with KURAMOCHI cells.

Turning to `C=CCn1c(=O)n(-c2nnc(C(F)F)s2)c2cc(S(=O)(=O)NC3(C#N)CC3)cc(N3CCN(S(=O)(=O)C(C)(C)C)CC3)c21` [Compound 074A], the IC50 amounted to 0.8 nM on PARG and 1 nM in the test on KURAMOCHI cells.

Turning to `C=CCn1c(=O)n(-c2nnc(C(F)F)s2)c2cc(S(=O)(=O)NC3(C#N)CC3)cc(N3CCN(S(=O)(=O)C4(C)CC4)CC3)c21` [Compound 074B], the figures for the IC50 at PARG and in the test with KURAMOCHI cells were 2.7 nM and 3 nM, respectively.

As for `C=CCn1c(=O)n(-c2nnc(C(F)F)s2)c2cc(S(=O)(=O)NC3(C#N)CC3)cc(N3CCN(S(=O)(=O)C4CCOC4)CC3)c21` (centres unmarked) [Compound 074C], the concentration for half-maximal inhibition (IC50) on PARG stood at 2.9 nM; in the test on KURAMOCHI cells, 13 nM.

For `C=CCn1c(=O)n(-c2nnc(C(F)F)s2)c2cc(S(=O)(=O)NC3(C#N)CC3)cc(N3CCN(S(=N)(=O)C(C)C)CC3)c21` (centres unmarked) [Compound 074G], the IC50 on PARG worked out at 3.3 nM; with KURAMOCHI cells it was 40 nM.

For the molecule `C=CCn1c(=O)n(-c2nnc(C(F)F)s2)c2cc(S(=O)(=O)NC3(C#N)CC3)cc(N3CCN(S(=O)(=O)N(C)C)CC3)c21` [Compound 074H], the IC50 at PARG amounted to 7.5 nM; in the test with KURAMOCHI cells it was 12 nM.

`C#CCn1c(=O)n(-c2nnc(C(F)F)s2)c2cc(S(=O)(=O)NC3(C#N)CC3)cc(N3CCN(C(=O)C(C)C)CC3)c21` [Compound 074K]: the half-maximal inhibitory concentration (IC50) at PARG came out at 1.9 nM; in the test on KURAMOCHI cells, 8 nM.

As to `C=CCn1c(=O)n(-c2nnc(C(F)F)s2)c2cc(S(=O)(=O)NC3(C#N)CC3)cc(N3CCN([S+]([O-])C(C)C)CC3)c21` (centres unmarked) [Compound 074M], the IC50 on PARG stood at 6.2 nM; in the test on KURAMOCHI cells, 16 nM.

As for `C=CCn1c(=O)n(-c2nnc(C(F)F)s2)c2cc(S(=O)(=O)NC3(C#N)CC3)cc(N3CCN(C(=O)C4CCCN4C(=O)OC)CC3)c21` (centres unmarked) [Compound 076E], the IC50 turned out to be 4.9 nM at PARG and 35 nM in the test with KURAMOCHI cells.

Regarding `C=CCn1c(=O)n(-c2nnc(C(F)F)s2)c2cc(S(=O)(=O)NC3(C#N)CC3)cc(N3CCN(C(=O)[C@@H]4CCCO4)CC3)c21` [Compound 076H1], the half-inhibitory concentration (IC50) at PARG turned out to be 14.4 nM; in the test on KURAMOCHI cells it was 34 nM.

For `C=CCn1c(=O)n(-c2nnc(C(F)F)s2)c2cc(S(=O)(=O)NC3(C#N)CC3)cc(N3CCN(C(=O)[C@H]4CCCO4)CC3)c21` [Compound 076H2], the IC50 was found to be 14 nM at PARG and 40 nM with KURAMOCHI cells.
